Results: ChEMBL document CHEMBL3351842, “Synthesis and biological characterization of new aryloxyindole-4,9-diones as potent trypanosomicidal agents” (Bioorg Med Chem Lett, 2014)

Legend:
Trypanosoma cruzi [1] = assay: Trypanocidal activity against Trypanosoma cruzi Y epimastigotes […] assessed as growth inhibition of parasite at 10 uM measured on day 5; type: functional; settings: 120 h, read-out: GI
Trypanosoma cruzi [2] = assay: Trypanocidal activity against Trypanosoma cruzi Y epimastigotes […] assessed as growth inhibition of parasite measured on day 5; type: functional, organism-based; settings: 120 h
J774 = assay: Cytotoxicity against mouse J774 cells assessed as cell viability after 48 hrs by MTT assay; type: cell-based; settings: J774, 48 h
[3] = Selectivity index, ratio of IC50 for mouse J774A cells to IC50 for Trypanosoma cruzi Y epimastigotes; type: toxicity, cell-based; settings: J774A cells versus Trypanosoma cruzi Y epimastigotes, read-out: Ratio IC50
Trypanosoma cruzi [4] = assay: microbe, parasite or virus in culture; settings: Y, J774, in Mus musculus, 120 h, read-out: GI
Description: Trypanocidal activity against Trypanosoma cruzi Y epimastigotes infected in mouse J774 cells assessed as growth inhibition of parasite at 5 uM measured on day 5

O=C1C=C(Oc2ccccc2)C(=O)c2ccccc21
inhibition of growth at 10 µM (Trypanosoma cruzi [1]): 87.2%
IC50 (Trypanosoma cruzi [2]): 50 nM
IC50 (J774): 12500 nM
selectivity ratio [3]: 250

CCOC(=O)c1cc2c(OC)cc(Br)c(OC)c2[nH]1
inhibition of growth at 10 µM (Trypanosoma cruzi [1]): 26.9%

CCOC(=O)c1cc2c(OC)cc(Br)c(OC)c2n1CC
inhibition of growth at 10 µM (Trypanosoma cruzi [1]): 2.9%

CCOC(=O)c1cc2c(n1CC)C(=O)C(Br)=CC2=O
inhibition of growth at 10 µM (Trypanosoma cruzi [1]): 97.1%
IC50 (Trypanosoma cruzi [2]): 530 nM

CCOC(=O)c1cc2c(n1CC)C(=O)C(Oc1ccccc1)=CC2=O
inhibition of growth at 10 µM (Trypanosoma cruzi [1]): 84.7%
IC50 (Trypanosoma cruzi [2]): 220 nM
IC50 (J774): 22000 nM
selectivity ratio [3]: 100

CCOC(=O)c1cc2c(n1CC)C(=O)C(Oc1ccc(C)cc1)=CC2=O
inhibition of growth at 10 µM (Trypanosoma cruzi [1]): 92.1%
IC50 (Trypanosoma cruzi [2]): 20 nM

CCOC(=O)c1cc2c(n1CC)C(=O)C(Oc1ccccc1C)=CC2=O
inhibition of growth at 10 µM (Trypanosoma cruzi [1]): 100%
IC50 (Trypanosoma cruzi [2]): 140 nM
IC50 (J774): 12500 nM
selectivity ratio [3]: 89.3

CCOC(=O)c1cc2c(n1CC)C(=O)C(Oc1ccc(OC)cc1)=CC2=O
inhibition of growth at 10 µM (Trypanosoma cruzi [1]): 90.5%
IC50 (Trypanosoma cruzi [2]): 20 nM
IC50 (J774): 12500 nM
selectivity ratio [3]: 625

CCOC(=O)c1cc2c(n1CC)C(=O)C(Oc1ccc(Cl)cc1)=CC2=O
inhibition of growth at 10 µM (Trypanosoma cruzi [1]): 94.6%
IC50 (Trypanosoma cruzi [2]): 130 nM

CC1CS(=O)(=O)CCN1/N=C/c1ccc([N+](=O)[O-])o1 (configuration not stated) [NIFURTIMOX]
IC50 (Trypanosoma cruzi [2]): 7000 nM
selectivity ratio [3]: 40
inhibition of growth at 5 µM (Trypanosoma cruzi [4]): 49.9%
